As usually defined, the CC50 is the concentration at which the toxic effect on the cells reaches its halfway point. A higher CC50 goes with lower toxicity to the cells. Usually IC50 stands for the concentration at which inhibition is half-maximal. For orientation: half-life means the time needed for the level to fall by half in the phase considered.

Like-named read-outs stand apart in the source and are kept apart here.

Data set [1] deals with Ebolavirus. The conditions noted are these: human, in vivo; cited from earlier work.
For data set [2], the system named is Ebolavirus. The conditions noted are these: cited from earlier work.
In data set [3] the test system is Huh7 cells. The data set can be described thus: Cytotoxicity, CellTiter-Glo Luminescent Cell Viability Assay. The conditions noted are these: Table 2, 24 h incubation.
In data set [4] the test system is EBOV-GFP (recombinant Ebolavirus encoding a GFP reporter gene). The data set can be described thus: microbe, parasite or virus in culture. It is filed as cell-based.
Data set [5] is described as follows: Cytotoxicity, CellTiter-Glo Luminescent Cell Viability Assay. The conditions noted are these: human, Huh7 cells. In general terms: Cellular ATP, detected with luciferase, serves as a proxy for viable cell number.
The conditions of data set [6]: in humans, metabolite formed by CYP2C8; cited from earlier work.

For the molecule `CCN(CC)Cc1cc(Nc2ccnc3cc(Cl)ccc23)ccc1O` [Amodiaquine], the mortality rate in data set [1] is listed as 50%. The “anti-Ebolavirus activity (previous reports)” value (shortened to “anti-Ebolavirus activity”) in data set [2] is listed as “potent anti-Ebolavirus activity”. Moreover, half-maximal cytotoxicity in data set [3] (CC50) was put at 79000 nM. Moreover, the 50% inhibitory concentration (IC50) in data set [4] (read-out: IC50) is 2130 nM.

For `CCN(CC)Cc1cc(Nc2ccnc3cc(I)ccc23)ccc1O` [Compound 18, 4-(7-iodoquinolin-4-ylamino)-2-diethylaminomethylphenol], the CC50 in data set [3] was > 100000 nM. In data set [5], the CC50 at 24 h was > 100000 nM. Further, the Selectivity index in data set [4] is >156. For the same molecule, in data set [4], the “fold potency relative to amodiaquine” value stood at 3.3 fold. Further, the 50% inhibitory concentration (IC50) in data set [4] (Orthoebolavirus, Huh-7) was 640 nM; in data set [4] (Orthoebolavirus, Huh-7, 24 h), 640 ± 50 nM.

Take `CCCCN(CCCC)Cc1cc(Nc2ccnc3cc(Cl)ccc23)ccc1O` [Compound 28, 4-(7-chloroquinolin-4-ylamino)-2-dibutylaminomethylphenol]: the CC50 in data set [3] was > 100000 nM. Moreover, the CC50 at 24 h in data set [5] is > 100000 nM. For the same molecule, the Selectivity index in data set [4] is >139. The IC50 in data set [4] (Orthoebolavirus, Huh-7) was determined as 720 nM; in data set [4] (Orthoebolavirus, Huh-7, 24 h), 720 ± 80 nM.

`CN(C)Cc1cc(Nc2ccnc3cc(I)ccc23)ccc1O` [Compound 30, 4-(7-iodoquinolin-4-ylamino)-2-dimethylaminomethylphenol]: the CC50 at 24 h in data set [5] is > 100000 nM. Moreover, the Selectivity index in data set [4] is listed as >145. Further, the IC50 in data set [4] (Orthoebolavirus, Huh-7) is 690 nM; in data set [4] (Orthoebolavirus, Huh-7, 24 h), 690 ± 80 nM.

For the molecule `CCN(C)Cc1cc(Nc2ccnc3cc(I)ccc23)ccc1O` [Compound 31, 4-(7-iodoquinolin-4-ylamino)-2-ethylmethylaminomethylphenol], in data set [5], the CC50 at 24 h is > 100000 nM. Besides, the Selectivity index in data set [4] was >161. For the same molecule, the IC50 in data set [4] (Orthoebolavirus, Huh-7) worked out at 620 nM; in data set [4] (Orthoebolavirus, Huh-7, 24 h) it was 620 ± 60 nM.

In the case of `CC(C)N(C)Cc1cc(Nc2ccnc3cc(I)ccc23)ccc1O` [Compound 32, 4-(7-iodoquinolin-4-ylamino)-2-isopropylmethylaminomethylphenol], the CC50 at 24 h in data set [5] is 38400 nM. For the same molecule, the Selectivity index in data set [4] worked out at 132. Also, the IC50 in data set [4] (Orthoebolavirus, Huh-7) turned out to be 290 nM; in data set [4] (Orthoebolavirus, Huh-7, 24 h), 290 ± 40 nM.

The molecule `CN(Cc1cc(Nc2ccnc3cc(I)ccc23)ccc1O)C(C)(C)C` [Compound 33, 4-(7-iodoquinolin-4-ylamino)-2-tert-butylmethylaminomethylphenol] returned a CC50 at 24 h in data set [5] of 32300 nM. Moreover, the Selectivity index in data set [4] is given as 108. Besides, the IC50 in data set [4] (Orthoebolavirus, Huh-7) was 300 nM; in data set [4] (Orthoebolavirus, Huh-7, 24 h), 300 ± 40 nM.

Regarding `CCCN(C)Cc1cc(Nc2ccnc3cc(I)ccc23)ccc1O` [Compound 34, 4-(7-iodoquinolin-4-ylamino)-2-methylpropylaminomethylphenol], the CC50 at 24 h in data set [5] is > 100000 nM. Also, the Selectivity index in data set [4] is on record as >233. Also, the IC50 worked out at 430 nM in data set [4] (Orthoebolavirus, Huh-7) and 430 ± 60 nM in data set [4] (Orthoebolavirus, Huh-7, 24 h).

`CCCCN(C)Cc1cc(Nc2ccnc3cc(I)ccc23)ccc1O` [Compound 35, 4-(7-iodoquinolin-4-ylamino)-2-butylmethylaminomethylphenol] came in with a CC50 at 24 h in data set [5] of 66100 nM. Moreover, the Selectivity index in data set [4] was found to be 150. In addition, the IC50 in data set [4] (Orthoebolavirus, Huh-7) stood at 440 nM; in data set [4] (Orthoebolavirus, Huh-7, 24 h) it was 440 ± 40 nM.

For the molecule `CCCCCN(C)Cc1cc(Nc2ccnc3cc(I)ccc23)ccc1O` [Compound 36, 4-(7-iodoquinolin-4-ylamino)-2-methylpentylaminomethylphenol], the CC50 at 24 h in data set [5] is > 100000 nM. Also, in data set [4], the Selectivity index is recorded as >270. The IC50 worked out at 370 nM in data set [4] (Orthoebolavirus, Huh-7) and 370 ± 40 nM in data set [4] (Orthoebolavirus, Huh-7, 24 h).

For `CCCCCCN(C)Cc1cc(Nc2ccnc3cc(I)ccc23)ccc1O` [Compound 37, 4-(7-iodoquinolin-4-ylamino)-2-hexylmethylaminomethylphenol], the CC50 at 24 h in data set [5] was > 100000 nM. In data set [4], the Selectivity index was >256. Further, the IC50 in data set [4] (Orthoebolavirus, Huh-7) was 390 nM; in data set [4] (Orthoebolavirus, Huh-7, 24 h) it was 390 ± 20 nM.

Turning to `CCCCCCCCN(C)Cc1cc(Nc2ccnc3cc(I)ccc23)ccc1O` [Compound 38, 4-(7-iodoquinolin-4-ylamino)-2-methyloctylaminomethylphenol], the CC50 at 24 h in data set [5] was > 100000 nM. In addition, the Selectivity index in data set [4] is given as >385. The IC50 was 260 nM in data set [4] (Orthoebolavirus, Huh-7) and 260 ± 60 nM in data set [4] (Orthoebolavirus, Huh-7, 24 h).

In the case of `CCN(CCO)Cc1cc(Nc2ccnc3cc(I)ccc23)ccc1O` [Compound 39, 4-(7-iodoquinolin-4-ylamino)-2-ethyl(2-hydroxyethyl)aminomethylphenol], in data set [5], the CC50 at 24 h was > 100000 nM. The Selectivity index in data set [4] is listed as >244. Moreover, the IC50 amounted to 410 nM in data set [4] (Orthoebolavirus, Huh-7) and 410 ± 50 nM in data set [4] (Orthoebolavirus, Huh-7, 24 h).

As to `CCCN(CC)Cc1cc(Nc2ccnc3cc(I)ccc23)ccc1O` [Compound 40, 4-(7-iodoquinolin-4-ylamino)-2-ethylpropylaminomethylphenol], the CC50 at 24 h in data set [5] was > 100000 nM. For the same molecule, the Selectivity index in data set [4] is listed as >278. In addition, the IC50 in data set [4] (Orthoebolavirus, Huh-7) came out at 360 nM; in data set [4] (Orthoebolavirus, Huh-7, 24 h), 360 ± 40 nM.

For `CCCCN(CC)Cc1cc(Nc2ccnc3cc(I)ccc23)ccc1O` [Compound 41, 4-(7-iodoquinolin-4-ylamino)-2-ethylbutylaminomethylphenol], in data set [5], the CC50 at 24 h was found to be 60400 nM. Further, in data set [4], the Selectivity index was determined as 147. Besides, the IC50 in data set [4] (Orthoebolavirus, Huh-7) amounted to 410 nM; in data set [4] (Orthoebolavirus, Huh-7, 24 h) it was 410 ± 40 nM.

With `Oc1ccc(Nc2ccnc3cc(I)ccc23)cc1CN1CCCC1` [Compound 42, 4-(7-iodoquinolin-4-ylamino)-2-(1-pyrrolidinylmethyl)phenol], half-maximal cytotoxicity in data set [5] (CC50 at 24 h) was put at 35300 nM. In addition, in data set [4], the Selectivity index is 54. The concentration for half-maximal inhibition (IC50) is 660 nM in data set [4] (Orthoebolavirus, Huh-7) and 660 ± 50 nM in data set [4] (Orthoebolavirus, Huh-7, 24 h).

As for `Oc1ccc(Nc2ccnc3cc(I)ccc23)cc1CN1CCCCC1` [Compound 43, 4-(7-iodoquinolin-4-ylamino)-2-(1-piperidinylmethyl)phenol], the CC50 at 24 h in data set [5] is > 100000 nM. Also, in data set [4], the Selectivity index was >270. The IC50 in data set [4] (Orthoebolavirus, Huh-7) stood at 370 nM; in data set [4] (Orthoebolavirus, Huh-7, 24 h) it was 370 ± 70 nM.

Turning to `Oc1ccc(Nc2ccnc3cc(I)ccc23)cc1CN1CCOCC1` [Compound 44, 4-(7-iodoquinolin-4-ylamino)-2-(4-morpholinylmethyl)phenol], the CC50 at 24 h in data set [5] was > 100000 nM. In addition, the Selectivity index in data set [4] was >63. The IC50 in data set [4] (Orthoebolavirus, Huh-7) stood at 1590 nM; in data set [4] (Orthoebolavirus, Huh-7, 24 h), 1590 ± 120 nM.

On to `Oc1ccc(Nc2ccnc3cc(I)ccc23)cc1CN1CCSCC1` [Compound 45, 4-(7-iodoquinolin-4-ylamino)-2-(4-thiamorpholinylmethyl)phenol], for which the CC50 at 24 h in data set [5] is > 100000 nM. Moreover, in data set [4], the Selectivity index is >51. The 50% inhibitory concentration (IC50) in data set [4] (Orthoebolavirus, Huh-7) worked out at 1950 nM; in data set [4] (Orthoebolavirus, Huh-7, 24 h), 1950 ± 220 nM.

With `CCNCc1cc(Nc2ccnc3cc(Cl)ccc23)ccc1O` [desethyl-amodiaquine], the “anti-Ebolavirus activity” value in data set [2] is “potent anti-Ebolavirus activity”. Further, in data set [6], the half-life is 220 to 432 h.

`COc1ccc2nc3cc(Cl)ccc3c(Nc3cc(CN4CCCC4)c(O)c(CN4CCCC4)c3)c2n1` [pyronaridine]: the “anti-Ebolavirus activity” value in data set [2] is reported as “anti-Ebolavirus activities”.

In the case of `CCN(CC)CCCC(C)Nc1c2ccc(Cl)cc2nc2ccc(OC)cc12` (centres unmarked) [quinacrine], in data set [2], the “anti-Ebolavirus activity” value is “anti-Ebolavirus activities”.

The values above are taken from patent publication US11571416B2, “Amodiaquine analogs and methods of uses thereof” (priority 2017, dated 2023).
